Target: CFTR (Homo sapiens, UniProt P13569)
Experiment: Membrane Potential Dye, Enteroid Assay B
Format: cell-based
Conditions: for EC50: read-out: Ent. B EC50
In short: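 Human intestinal enteroids seeded at 5000 cells/well, treated with compound 18-24 h at 37 °C, then loaded 25 min with methyl oxonol membrane-potential dye plus CaCC blockers. Chloride transport started in chloride-free buffer with 10 μM forskolin, 100 μM IBMX and 300 nM Compound III, read 15 min; expressed as % of triple-combination control.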

CFTR, sequence (P13569 with tags, fused parts or gaps DEL508-508): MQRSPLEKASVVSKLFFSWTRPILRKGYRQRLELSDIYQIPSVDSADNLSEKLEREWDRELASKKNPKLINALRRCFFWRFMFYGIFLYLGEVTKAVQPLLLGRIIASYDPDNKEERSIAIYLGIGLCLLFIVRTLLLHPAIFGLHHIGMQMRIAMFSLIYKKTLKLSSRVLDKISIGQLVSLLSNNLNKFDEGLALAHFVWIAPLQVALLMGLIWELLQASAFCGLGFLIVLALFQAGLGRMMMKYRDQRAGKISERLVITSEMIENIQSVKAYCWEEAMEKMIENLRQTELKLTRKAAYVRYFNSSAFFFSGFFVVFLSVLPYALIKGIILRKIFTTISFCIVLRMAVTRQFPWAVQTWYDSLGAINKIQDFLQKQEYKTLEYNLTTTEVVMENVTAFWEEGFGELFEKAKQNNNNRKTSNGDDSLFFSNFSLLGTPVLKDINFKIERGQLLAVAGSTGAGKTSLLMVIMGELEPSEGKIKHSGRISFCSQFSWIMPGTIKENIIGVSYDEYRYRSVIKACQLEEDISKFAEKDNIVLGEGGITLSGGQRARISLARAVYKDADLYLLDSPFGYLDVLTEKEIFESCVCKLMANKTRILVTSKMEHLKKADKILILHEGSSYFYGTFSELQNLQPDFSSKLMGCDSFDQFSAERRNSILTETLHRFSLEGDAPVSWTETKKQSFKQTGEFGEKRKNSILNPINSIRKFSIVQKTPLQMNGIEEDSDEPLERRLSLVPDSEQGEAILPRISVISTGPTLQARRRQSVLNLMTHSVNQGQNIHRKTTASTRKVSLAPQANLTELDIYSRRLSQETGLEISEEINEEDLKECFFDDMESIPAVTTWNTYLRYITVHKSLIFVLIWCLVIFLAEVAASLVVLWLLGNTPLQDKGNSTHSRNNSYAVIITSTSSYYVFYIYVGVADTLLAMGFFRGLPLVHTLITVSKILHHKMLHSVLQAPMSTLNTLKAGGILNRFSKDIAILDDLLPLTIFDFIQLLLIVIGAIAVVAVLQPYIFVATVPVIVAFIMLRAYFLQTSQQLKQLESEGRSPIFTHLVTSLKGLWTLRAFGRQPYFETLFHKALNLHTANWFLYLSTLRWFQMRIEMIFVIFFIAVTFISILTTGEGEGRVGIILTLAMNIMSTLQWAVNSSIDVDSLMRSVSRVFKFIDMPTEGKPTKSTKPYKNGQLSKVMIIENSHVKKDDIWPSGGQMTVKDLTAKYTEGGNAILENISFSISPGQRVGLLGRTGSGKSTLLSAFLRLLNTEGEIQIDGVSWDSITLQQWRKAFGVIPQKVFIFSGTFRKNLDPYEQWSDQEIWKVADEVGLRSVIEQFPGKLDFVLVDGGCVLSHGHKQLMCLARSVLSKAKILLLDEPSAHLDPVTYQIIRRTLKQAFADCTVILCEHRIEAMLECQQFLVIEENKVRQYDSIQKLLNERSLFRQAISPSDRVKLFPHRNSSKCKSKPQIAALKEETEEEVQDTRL

Cc1cccc(C)c1-c1nc2nc(c1C)OC[C@@H](CCC(C)(C)O)N(Cc1ccc(C(C)(C)O)cc1)C(=O)c1cccc(c1)S(=O)(=O)N2 [Compound 112]
Ent. B Max Activity: ++ (++ is 30-60%)
EC50: 1000 to 3000 nM

Cc1cccc(C)c1-c1nc2nc(c1C)OC[C@@H](CCC(C)(C)O)N(Cc1ncccn1)C(=O)c1cccc(c1)S(=O)(=O)N2 [Compound 113]
Ent. B Max Activity: ++ (++ is 30-60%)
EC50: 3000 to 30000 nM

Cc1cccc(C)c1-c1nc2nc(c1C)OC[C@@H](CC(C)(C)O)N(Cc1ccc(C(C)(C)O)cc1)C(=O)c1cccc(c1)S(=O)(=O)N2 [Compound 114]
Ent. B Max Activity: +++ (+++ is >60%)
EC50: < 1000 nM

CCc1c2nc(nc1-c1c(C)cccc1C)NS(=O)(=O)c1cccc(c1)C(=O)N[C@@H]1CN(C3CC4(CCCCC4)C3)C[C@H]1O2 [Compound 115]
Ent. B Max Activity: +++ (+++ is >60%)
EC50: < 1000 nM

Cc1cccc(C)c1-c1nc2nc(c1-c1ccccc1)O[C@H](C)CNC(=O)c1cccc(c1)S(=O)(=O)N2 [Compound 119, (10R)-6-(2,6-dimethylphenyl)-10-methyl-2,2-dioxo-7-phenyl-9-oxa-2λ^6-thia-3,5,12,19-tetrazatricyclo[12.3.1.14,8]nonadeca-1(18),4(19),5,7,14,16-hexaen-13-one]
Ent. B Max Activity: +++ (+++ is >60%)
EC50: < 1000 nM

Cc1cccc(C)c1-c1nc2nc(c1CCC(C)(C)C)O[C@H](C)CNC(=O)c1cccc(c1)S(=O)(=O)N2 [Compound 120, (10R)-7-(3,3-Dimethylbutyl)-6-(2,6-dimethylphenyl)-10-methyl-2,2-dioxo-9-oxa-2λ^6-thia-3,5,12,19-tetrazatricyclo[12.3.1.14,8]nonadeca-1(18),4(19),5,7,14,16-hexaen-13-one]
Ent. B Max Activity: +++ (+++ is >60%)
EC50: < 1000 nM

Cc1cccc(C)c1-c1nc2nc(c1/C=C/C(C)(C)C)O[C@H](C)CNC(=O)c1cccc(c1)S(=O)(=O)N2 [Compound 121, (10R)-7-[(E)-3,3-Dimethylbut-1-enyl]-6-(2,6-dimethylphenyl)-10-methyl-2,2-dioxo-9-oxa-2λ^6-thia-3,5,12,19-tetrazatricyclo[12.3.1.14,8]nonadeca-1(18),4(19),5,7,14,16-hexaen-13-one]
Ent. B Max Activity: +++ (+++ is >60%)
EC50: < 1000 nM

COc1cccc(-c2c3nc(nc2-c2c(C)cccc2C)NS(=O)(=O)c2cccc(c2)C(=O)NC[C@@H](C)O3)c1 [Compound 122, (10R)-6-(2,6-Dimethylphenyl)-7-(3-methoxyphenyl)-10-methyl-2,2-dioxo-9-oxa-2λ^6-thia-3,5,12,19-tetrazatricyclo[12.3.1.14,8]nonadeca-1(18),4(19),5,7,14,16-hexaen-13-one]
Ent. B Max Activity: +++ (+++ is >60%)
EC50: < 1000 nM

COc1ccccc1-c1c2nc(nc1-c1c(C)cccc1C)NS(=O)(=O)c1cccc(c1)C(=O)N[C@H](C)CO2 [Compound 123, (11R)-6-(2,6-Dimethylphenyl)-7-(2-methoxyphenyl)-11-methyl-2,2-dioxo-9-oxa-2λ^6-thia-3,5,12,19-tetrazatricyclo[12.3.1.14,8]nonadeca-1(18),4(19),5,7,14,16-hexaen-13-one]
Ent. B Max Activity: +++ (+++ is >60%)
EC50: 1000 to 3000 nM

Cc1cccc(C)c1-c1nc2nc(c1-c1cnn(CC(C)C)c1)OC[C@@H](C)NC(=O)c1cccc(c1)S(=O)(=O)N2 [Compound 124, (11R)-6-(2,6-Dimethylphenyl)-7-(1-isobutylpyrazol-4-yl)-11-methyl-2,2-dioxo-9-oxa-2λ^6-thia-3,5,12,19-tetrazatricyclo[12.3.1.14,8]nonadeca-1(18),4(19),5,7,14,16-hexaen-13-one]
Ent. B Max Activity: ++ (++ is 30-60%)
EC50: 3000 to 30000 nM

Cc1cccc(C)c1-c1nc2nc(c1CCC(C)(C)C)OC[C@@H](C)NC(=O)c1cccc(c1)S(=O)(=O)N2 [Compound 125, (11R)-7-(3,3-Dimethylbutyl)-6-(2,6-dimethylphenyl)-11-methyl-2,2-dioxo-9-oxa-2λ^6-thia-3,5,12,19-tetrazatricyclo[12.3.1.14,8]nonadeca-1(18),4(19),5,7,14,16-hexaen-13-one]
Ent. B Max Activity: ++ (++ is 30-60%)
EC50: < 1000 nM

Cc1cccc(C)c1-c1nc2nc(c1/C=C/C(C)(C)C)OC[C@@H](CC(C)C)NC(=O)c1cccc(c1)S(=O)(=O)N2 [Compound 126, (11R)-7-[(1E)-3,3-dimethylbut-1-en-1-yl]-6-(2,6-dimethylphenyl)-11-(2-methylpropyl)-9-oxa-2λ^6-thia-3,5,12,19-tetraazatricyclo[12.3.1.14,8]nonadeca-1(17),4,6,8(19),14(18),15-hexaene-2,2,13-trione]
Ent. B Max Activity: +++ (+++ is >60%)
EC50: < 1000 nM

Cc1cccc(C)c1-c1nc2nc(c1-c1cnn(CC(C)C)c1)O[C@H](C)CNC(=O)c1cccc(c1)S(=O)(=O)N2 [Compound 127]
Ent. B Max Activity: +++ (+++ is >60%)
EC50: 1000 to 3000 nM

Cc1cccc(C)c1-c1nc2nc(c1-c1cnn(C)c1)O[C@H](C)CNC(=O)c1cccc(c1)S(=O)(=O)N2 [Compound 128]
Ent. B Max Activity: + (+ is <30%)

Cc1cccc(C)c1-c1nc2nc(c1-c1ccn(C)n1)O[C@H](C)CNC(=O)c1cccc(c1)S(=O)(=O)N2 [Compound 129]
Ent. B Max Activity: + (+ is <30%)

COc1ccc(-c2c3nc(nc2-c2c(C)cccc2C)NS(=O)(=O)c2cccc(c2)C(=O)NC[C@@H](C)O3)cc1 [Compound 130]
Ent. B Max Activity: +++ (+++ is >60%)
EC50: < 1000 nM

COc1ccccc1-c1c2nc(nc1-c1c(C)cccc1C)NS(=O)(=O)c1cccc(c1)C(=O)NC[C@@H](C)O2 [Compound 131]
Ent. B Max Activity: +++ (+++ is >60%)
EC50: 1000 to 3000 nM

Cc1cccc(C)c1-c1nc2nc(c1-c1ccncc1)O[C@H](C)CNC(=O)c1cccc(c1)S(=O)(=O)N2 [Compound 132]
Ent. B Max Activity: + (+ is <30%)

Cc1cccc(C)c1-c1nc2nc(c1-c1cccnc1)O[C@H](C)CNC(=O)c1cccc(c1)S(=O)(=O)N2 [Compound 133]
Ent. B Max Activity: + (+ is <30%)

Cc1cccc(C)c1-c1nc2nc(c1C1=CCN(C(=O)OC(C)(C)C)CC1)OC[C@@H](C)NC(=O)c1cccc(c1)S(=O)(=O)N2 [Compound 136]
Ent. B Max Activity: ++ (++ is 30-60%)
EC50: 1000 to 3000 nM

Cc1cccc(C)c1-c1nc2nc(c1-c1ccn(C)n1)OC[C@@H](C)NC(=O)c1cccc(c1)S(=O)(=O)N2 [Compound 137]
Ent. B Max Activity: + (+ is <30%)

Cc1cccc(C)c1-c1nc2nc(c1/C=C/C(C)(C)C)OC[C@@H](C)NC(=O)c1cccc(c1)S(=O)(=O)N2 [Compound 138]
Ent. B Max Activity: ++ (++ is 30-60%)
EC50: < 1000 nM

Cc1cccc(C)c1-c1nc2nc(c1-c1cnn(C(C)C)c1)OC[C@@H](C)NC(=O)c1cccc(c1)S(=O)(=O)N2 [Compound 139]
Ent. B Max Activity: + (+ is <30%)
EC50: 3000 to 30000 nM

Cc1cccc(C)c1-c1nc2nc(c1C1=CCOCC1)OC[C@@H](C)NC(=O)c1cccc(c1)S(=O)(=O)N2 [Compound 140]
Ent. B Max Activity: ++ (++ is 30-60%)
EC50: 3000 to 30000 nM

Cc1cccc(C)c1-c1nc2nc(c1C1CCN(C(=O)OC(C)(C)C)CC1)OC[C@@H](C)NC(=O)c1cccc(c1)S(=O)(=O)N2 [Compound 141]
Ent. B Max Activity: + (+ is <30%)

Cc1cccc(C)c1-c1nc2nc(c1-c1ccccc1)OC[C@@H](C)NC(=O)c1cccc(c1)S(=O)(=O)N2 [Compound 142]
Ent. B Max Activity: ++ (++ is 30-60%)
EC50: < 1000 nM

Cc1cccc(C)c1-c1nc2nc(c1-c1cccnc1)OC[C@@H](C)NC(=O)c1cccc(c1)S(=O)(=O)N2 [Compound 143]
Ent. B Max Activity: + (+ is <30%)

COc1ccc(-c2c3nc(nc2-c2c(C)cccc2C)NS(=O)(=O)c2cccc(c2)C(=O)N[C@H](C)CO3)cc1 [Compound 144]
Ent. B Max Activity: +++ (+++ is >60%)
EC50: < 1000 nM

Cc1cccc(C)c1-c1nc2nc(c1-c1ccncc1)OC[C@@H](C)NC(=O)c1cccc(c1)S(=O)(=O)N2 [Compound 145]
Ent. B Max Activity: + (+ is <30%)

Cc1cccc(C)c1-c1nc2nc(c1-c1cnn(C)c1)OC[C@@H](C)NC(=O)c1cccc(c1)S(=O)(=O)N2 [Compound 146]
Ent. B Max Activity: + (+ is <30%)

Cc1cccc(C)c1-c1nc2nc(c1-c1cnn(C(C)C)c1)O[C@H](C)CNC(=O)c1cccc(c1)S(=O)(=O)N2 [Compound 147]
Ent. B Max Activity: ++ (++ is 30-60%)
EC50: 3000 to 30000 nM

Cc1cccc(C)c1-c1nc2nc(c1C1=CCN(C(=O)OC(C)(C)C)CC1)O[C@H](C)CNC(=O)c1cccc(c1)S(=O)(=O)N2 [Compound 149]
Ent. B Max Activity: ++ (++ is 30-60%)
EC50: < 1000 nM

Cc1cccc(C)c1-c1nc2nc(c1C1CCN(C(=O)OC(C)(C)C)CC1)O[C@H](C)CNC(=O)c1cccc(c1)S(=O)(=O)N2 [Compound 150]
Ent. B Max Activity: ++ (++ is 30-60%)
EC50: 1000 to 3000 nM

Cc1cccc(C)c1-c1nc2nc(c1C1CCOCC1)O[C@H](C)CNC(=O)c1cccc(c1)S(=O)(=O)N2 [Compound 151]
Ent. B Max Activity: ++ (++ is 30-60%)

Cc1cccc(C)c1-c1nc2nc(c1C1=CCOCC1)O[C@H](C)CNC(=O)c1cccc(c1)S(=O)(=O)N2 [Compound 152]
Ent. B Max Activity: ++ (++ is 30-60%)
EC50: 3000 to 30000 nM

Source: patent US20230374038A1, “MODULATORS OF CYSTIC FIBROSIS TRANSMEMBRANE CONDUCTANCE REGULATOR” (VERTEX PHARMACEUTICALS INCORPORATED, priority 2020, published 2023)
